Holding throughout (assay): microbe, parasite or virus in culture
Assay [1] has as its system T1, blaKPC-2 179 Asp (WT) in E. coli DH10B.
T1 construct: DH10B expressing blaKPC-2 (wild type)
On the set-up: species or system E. coli DH10B / K. pneumoniae; Mueller-Hinton agar dilution MIC, CLSI, no visible growth. Conditions: Escherichia coli. Here is the method:
Mueller-Hinton (MH) agar-dilution MIC measurements were performed according to Clinical and Laboratory Standards Institute (CLSI) guidelines as previously described ([12], [30]). The MICs are reported as the concentrations at which bacterial growth was no longer observed. Avibactam was tested at a constant 4 µg/ml in combination with its respective antibiotic partners. All MIC measurements were performed at least three times.

The next assay deals with T2, E. coli DH10B.
T2 construct: DH10B
On the set-up: species or system bacterial strain of the line; Mueller-Hinton agar-dilution MIC, CLSI; concentration at which bacterial growth was no longer observed. The conditions noted are these: Escherichia coli. Here is the method: (§1) Mueller-Hinton (MH) agar-dilution MIC measurements were performed according to Clinical and Laboratory Standards Institute (CLSI) guidelines as previously described ([12], [30]). The MICs are reported as the concentrations at which bacterial growth was no longer observed. Avibactam was tested at a constant 4 µg/ml in combination with its respective antibiotic partners. All MIC measurements were performed at least three times. The impact of site-saturation mutagenesis at Ambler position 179 of KPC-2 on antibiotic resistance was next assessed using whole-cell viability assays. Twenty-four different β-lactam and β-lactam–β-lactamase inhibitor combinations were tested for susceptibility against KPC-2 and the 19 variants expressed in E. coli DH10B cells (Tables 1 and 2). The Klebsiella pneumoniae KPC-2-containing positive-control strain maintained resistance (as defined by Clinical and Laboratory Standards Institute [CLSI] criteria) against all the commercially available β-lactams tested (Table 1).

In the next assay the test system is T3, E. coli DH10B pBC SK.
T3 construct: DH10B carries empty vector pBC SK
Also noted: species or system bacterial strain of the line; Mueller-Hinton agar-dilution MIC, CLSI; concentration at which bacterial growth was no longer observed. The conditions noted are these: Escherichia coli, empty vector pBC SK. How it is done:
as §1

The test system of another assay is T4, K. pneumoniae KPC-2.
T4 construct: KPC-2-producing control strain, also producing TEM-1 and SHV-29
Also noted: species or system bacterial strain of the line; Mueller-Hinton agar-dilution MIC, CLSI; concentration at which bacterial growth was no longer observed. The conditions noted are these: Klebsiella pneumoniae.

[2] abbreviates: BAL, read-out: MIC(s) (µg/ml) / BAL.

Converted amounts (≈) assume the structure as drawn. Where two headings read alike, the source gives them in different places.

As to `CO/N=C(\C(=O)N[C@@H]1C(=O)N2C(C(=O)O)=C(CSc3nc(=O)c(=O)[nH]n3C)CS[C@H]12)c1csc(N)n1` [CRO, ceftriaxone], the MIC in assay [1] (read-out: MIC(s) (µg/ml) / CRO) is 0.5 µg/mL; with E. coli DH10B (DH10B, read-out: MIC(s) (µg/ml) / CRO), not above 0.06 µg/mL; in the assay on E. coli DH10B pBC SK (DH10BPBCSK, read-out: MIC(s) (µg/ml) / CRO), not above 0.06 µg/mL.

For the molecule `C[C@H]1[C@H](NC(=O)/C(=N\OC(C)(C)C(=O)O)c2csc(N)n2)C(=O)N1S(=O)(=O)O` [AZT, aztreonam], the MIC in the assay on E. coli DH10B (DH10B, read-out: MIC(s) (µg/ml) / AZT) came out at 0.06 µg/mL; in the assay on E. coli DH10B pBC SK (DH10BPBCSK, read-out: MIC(s) (µg/ml) / AZT) it was 0.06 µg/mL.

Consider `CC1(C)[C@H](NC(=O)/C(=N\OCc2cc(=O)c(O)cn2O)c2csc(N)n2)C(=O)N1OS(=O)(=O)O` [BAL30072], for which the MIC in the assay with K. pneumoniae KPC-2 (setting [2]) is 8 µg/mL (≈ 15.4 µM); in assay [1] (setting [2]), not above 0.06 µg/mL; in the assay with E. coli DH10B (setting [2]), not above 0.06 µg/mL; with E. coli DH10B pBC SK (setting [2]), not above 0.06 µg/mL.

With `C[C@@H](O)[C@H]1C(=O)N2C(C(=O)O)=C(S[C@@H]3CN[C@H](C(=O)Nc4cccc(C(=O)O)c4)C3)[C@H](C)[C@H]12` [ertapenem], the MIC in the assay with K. pneumoniae KPC-2 (KPC2, read-out: MIC(s) (µg/ml) / ERT) was 32 µg/mL (≈ 67.3 µM); in assay [1] (read-out: MIC(s) (µg/ml) / ERT) it was not above 0.06 µg/mL; in the assay on E. coli DH10B (DH10B, read-out: MIC(s) (µg/ml) / ERT) it was not above 0.03 µg/mL; in the assay on E. coli DH10B pBC SK (DH10BPBCSK, read-out: MIC(s) (µg/ml) / ERT) it was not above 0.03 µg/mL.

Turning to `CO/N=C(\C(=O)N[C@@H]1C(=O)N2C(C(=O)[O-])=C(C[N+]3(C)CCCC3)CS[C@H]12)c1csc(N)n1` [cefepime], the MIC was 64 µg/mL (≈ 133 µM) with K. pneumoniae KPC-2 (KPC2, read-out: MIC(s) (µg/ml) / FEP); 0.125 µg/mL in assay [1] (read-out: MIC(s) (µg/ml) / FEP); not above 0.125 µg/mL in the assay on E. coli DH10B (DH10B, read-out: MIC(s) (µg/ml) / FEP); not above 0.125 µg/mL in the assay with E. coli DH10B pBC SK (DH10BPBCSK, read-out: MIC(s) (µg/ml) / FEP).

For the molecule `CC(=O)OCC1=C(C(=O)O)N2C(=O)[C@@H](NC(=O)Cc3cccs3)[C@H]2SC1` [cephalothin], the MIC came out at 2050 µg/mL (≈ 5170 µM) in the assay with K. pneumoniae KPC-2 (KPC2, read-out: MIC(s) (µg/ml) / THIN); 64 µg/mL in assay [1] (read-out: MIC(s) (µg/ml) / THIN); 4 µg/mL in the assay with E. coli DH10B (DH10B, read-out: MIC(s) (µg/ml) / THIN); 4 µg/mL in the assay on E. coli DH10B pBC SK (DH10BPBCSK, read-out: MIC(s) (µg/ml) / THIN).

As for `C[C@@H](O)[C@H]1C(=O)N2C(C(=O)O)=C(SCCN=CN)C[C@H]12` [IMI, imipenem], the MIC in the assay on K. pneumoniae KPC-2 (KPC2, read-out: MIC(s) (µg/ml) / IMI) was found to be 16 µg/mL (≈ 53.4 µM); in assay [1] (read-out: MIC(s) (µg/ml) / IMI), 1 µg/mL; with E. coli DH10B (DH10B, read-out: MIC(s) (µg/ml) / IMI), 0.5 µg/mL; with E. coli DH10B pBC SK (DH10BPBCSK, read-out: MIC(s) (µg/ml) / IMI) it was 0.5 µg/mL.

For the molecule `CCN1CCN(C(=O)N[C@@H](C(=O)N[C@@H]2C(=O)N3[C@@H]2SC(C)(C)[C@@H]3C(=O)O)c2ccccc2)C(=O)C1=O` [piperacillin], the MIC came out at 2050 µg/mL (≈ 3960 µM) in the assay with K. pneumoniae KPC-2 (KPC2, read-out: MIC(s) (µg/ml) / PIP); 8 µg/mL in assay [1] (read-out: MIC(s) (µg/ml) / PIP); 2 µg/mL with E. coli DH10B (DH10B, read-out: MIC(s) (µg/ml) / PIP); 2 µg/mL in the assay with E. coli DH10B pBC SK (DH10BPBCSK, read-out: MIC(s) (µg/ml) / PIP).

In the case of `CO/N=C(\C(=O)N[C@@H]1C(=O)N2C(C(=O)O)=C(COC(C)=O)CS[C@H]12)c1csc(N)n1` [cefotaxime], the MIC was 64 µg/mL (≈ 141 µM) in the assay on K. pneumoniae KPC-2 (KPC2, read-out: MIC(s) (µg/ml) / TAX); 0.25 µg/mL in assay [1] (read-out: MIC(s) (µg/ml) / TAX); not above 0.06 µg/mL in the assay with E. coli DH10B (DH10B, read-out: MIC(s) (µg/ml) / TAX); not above 0.06 µg/mL in the assay on E. coli DH10B pBC SK (DH10BPBCSK, read-out: MIC(s) (µg/ml) / TAX).

With `C[C@@H](O)[C@H]1C(=O)N2C(C(=O)O)=C(S[C@@H]3CN[C@H](CNS(N)(=O)=O)C3)[C@H](C)[C@H]12` [doripenem], the MIC in the assay on K. pneumoniae KPC-2 (KPC2, read-out: MIC(s) (µg/ml) / DOR) was 8 µg/mL (≈ 19 µM); in assay [1] (read-out: MIC(s) (µg/ml) / DOR) it was 0.125 µg/mL; in the assay with E. coli DH10B (DH10B, read-out: MIC(s) (µg/ml) / DOR) it was not above 0.06 µg/mL; in the assay on E. coli DH10B pBC SK (DH10BPBCSK, read-out: MIC(s) (µg/ml) / DOR), not above 0.06 µg/mL.

Consider `CCO/N=C(\C(=O)N[C@@H]1C(=O)N2C(C(=O)[O-])=C(Sc3nc(-c4cc[n+](C)cc4)cs3)CS[C@H]12)c1nsc(N)n1` [TAR, ceftaroline], for which the MIC in the assay on K. pneumoniae KPC-2 (KPC2, read-out: MIC(s) (µg/ml) / TAR) is 512 µg/mL (≈ 847 µM); in assay [1] (read-out: MIC(s) (µg/ml) / TAR) it was 1 µg/mL; in the assay with E. coli DH10B (DH10B, read-out: MIC(s) (µg/ml) / TAR), 0.06 µg/mL; in the assay on E. coli DH10B pBC SK (DH10BPBCSK, read-out: MIC(s) (µg/ml) / TAR), less than 0.06 µg/mL.

Turning to `CC(C)(O/N=C(\C(=O)N[C@@H]1C(=O)N2C(C(=O)[O-])=C(C[n+]3ccccc3)CS[C@H]12)c1csc(N)n1)C(=O)O` [CAZ, ceftazidime], the MIC in the assay with K. pneumoniae KPC-2 (KPC2, read-out: MIC(s) (µg/ml) / CAZ) worked out at 64 µg/mL (≈ 117 µM); in assay [1] (read-out: MIC(s) (µg/ml) / CAZ) it was 1 µg/mL; in the assay on E. coli DH10B (DH10B, read-out: MIC(s) (µg/ml) / CAZ) it was 0.25 µg/mL; with E. coli DH10B pBC SK (DH10BPBCSK, read-out: MIC(s) (µg/ml) / CAZ), 0.25 µg/mL.

For the molecule `C[C@@H](O)[C@H]1C(=O)N2C(C(=O)O)=C(S[C@@H]3CN[C@H](C(=O)N(C)C)C3)[C@H](C)[C@H]12` [meropenem], the MIC in the assay on K. pneumoniae KPC-2 (KPC2, read-out: MIC(s) (µg/ml) / MEM) was 16 µg/mL (≈ 41.7 µM); in assay [1] (read-out: MIC(s) (µg/ml) / MEM), 0.06 µg/mL; in the assay with E. coli DH10B (DH10B, read-out: MIC(s) (µg/ml) / MEM), not above 0.06 µg/mL; with E. coli DH10B pBC SK (DH10BPBCSK, read-out: MIC(s) (µg/ml) / MEM) it was not above 0.06 µg/mL.

Consider `CC1(C)S[C@@H]2[C@H](NC(=O)[C@H](N)c3ccccc3)C(=O)N2[C@H]1C(=O)O` [ampicillin], for which the MIC in the assay on K. pneumoniae KPC-2 (KPC2, read-out: MIC(s) (µg/ml) / AMP) was more than 8190 µg/mL; in assay [1] (read-out: MIC(s) (µg/ml) / AMP) it was 64 µg/mL; in the assay on E. coli DH10B (DH10B, read-out: MIC(s) (µg/ml) / AMP), 8 µg/mL; with E. coli DH10B pBC SK (DH10BPBCSK, read-out: MIC(s) (µg/ml) / AMP), 4 µg/mL.

The values above are taken from publication PMC5666153, “Klebsiella pneumoniae Carbapenemase-2 (KPC-2), Substitutions at Ambler Position Asp179, and Resistance to Ceftazidime-Avibactam: Unique Antibiotic-Resistant Phenotypes Emerge from β-Lactamase Protein Engineering” (mBio, 2017).
